In patent US6472348B1, “Pyridone derivatives and herbicides” (Kumiai Chemical Industry Co., Ltd., priority 1996, dated 2002):

Assays:
Digitaria ciliaris (Di) = test: Test Example 2: herbicidal effects by upland field soil treatment; assay type: in vivo; conditions: 100 g of the active ingredient per 10 ares, evaluated on the 21st day after application;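 note: grade of growth control; 5 = at least 90%; 4 = 70 to 90%; 3 = 50 to 70%; 2 = 30 to 50%; 1 = 10 to 30%; 0 = under 10%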
Source text: (§1) (Test on Herbicidal Effects by Upland Field Soil Treatment)

[1] = system: common lambsquarters (Ch); test: as above; assay type: in vivo; conditions: 100 g of the active ingredient per 10 ares, evaluated on the 21st day after application
Source text: as §1

rice flatsedge (Ci) [2] = test: as above; assay type: in vivo; conditions: 100 g of the active ingredient per 10 ares, evaluated on the 21st day after application
Source text: as §1

barnyardgrass (Ec) [3] = test: as above; assay type: in vivo; conditions: 100 g of the active ingredient per 10 ares, evaluated on the 21st day after application
Source text: as §1

pale smartweed (Po) [4] = test: as above; assay type: in vivo; conditions: 100 g of the active ingredient per 10 ares, evaluated on the 21st day after application
Source text: as §1

slender amaranth (Am) [5] = test: as above; assay type: in vivo; conditions: 100 g of the active ingredient per 10 ares, evaluated on the 21st day after application
Source text: as §1

[6] = system: common lambsquarters (Ch); test: Test Example 11: crop plant selectivity by upland field foliage treatment (corn), herbicidal effects; assay type: in vivo; parameters: scale not given here; conditions: upland field foliage treatment (corn test), dose 1.6 g ai/10a, 14th day after treatment
Method: (§2) (Test on Crop Plant Selectivity by Upland Field Foliage Treatment)
(§3) In a plastic pot (surface area: 600 cm^2) filled with sand, corn (Ze), pale smartweed (Po), slender amaranth (Am), common lambsquarters (Ch) and China jute (Ab) were sown and cultured in a green house for 2 weeks. […] The plants were then cultured in a green house, and the evaluation of the herbicidal effects and phytotoxicity was conducted on the 14th day after the treatment in accordance with the standards as identified in Table 47.

pale smartweed (Po) [7] = test: as above; assay type: in vivo; parameters: scale not given here; conditions: upland field foliage treatment (corn test), dose 1.6 g ai/10a, 14th day after treatment
Method: as §2, §3

slender amaranth (Am) [8] = test: as above; assay type: in vivo; parameters: scale not given here; conditions: upland field foliage treatment (corn test), dose 1.6 g ai/10a, 14th day after treatment
Method: as §2, §3

China jute (Ab) [9] = test: as above; assay type: in vivo; parameters: scale not given here; conditions: upland field foliage treatment (corn test), dose 1.6 g ai/10a, 14th day after treatment
Method: as §2, §3

bulrush (Sc) = test: Test Example 1: herbicidal effects by paddy field soil treatment; assay type: in vivo; conditions: 100 g of the active ingredient per 10 ares, 21st day after the application, index 0-5 of Table 47;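 note: grade of growth control; 5 = at least 90%; 4 = 70 to 90%; 3 = 50 to 70%; 2 = 30 to 50%; 1 = 10 to 30%; 0 = under 10%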
Procedure, shortened: (§4)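 Flooded paddy-soil pots (3 cm water) sown after puddling/leveling; treatment 100 g a.i./10 ares; greenhouse culture; herbicidal effect rated visually on a scoring scale at 21 d post-application.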

barnyardgrass (Ec) [10] = test: as above; assay type: in vivo; conditions: 100 g of the active ingredient per 10 ares, 21st day after the application, index 0-5 of Table 47
Procedure, shortened: as §4

monochoria (Mo) = test: as above; assay type: in vivo; conditions: 100 g of the active ingredient per 10 ares, 21st day after the application, index 0-5 of Table 47;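 note: grade of growth control; 5 = at least 90%; 4 = 70 to 90%; 3 = 50 to 70%; 2 = 30 to 50%; 1 = 10 to 30%; 0 = under 10%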
Procedure, shortened: as §4

[11] = system: common lambsquarters (Ch); test: Test Example 9: crop plant selectivity by upland field foliage treatment (wheat), herbicidal effects; assay type: in vivo; parameters: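 grade of growth control; 5 = at least 90%; 4 = 70 to 90%; 3 = 50 to 70%; 2 = 30 to 50%; 1 = 10 to 30%; 0 = under 10%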; conditions: dose 1.6 g ai/10a, 14th day after treatment
Procedure, shortened: (§5)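 Sand-filled pot, wheat + weeds co-sown; greenhouse 2 wk, then foliage treatment; greenhouse culture continued; visual scoring of weed control and crop injury at 14 d post-treatment per grading scale.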

pale smartweed (Po) [12] = test: as above; assay type: in vivo; parameters: scale not given here; conditions: dose 1.6 g ai/10a, 14th day after treatment
Procedure, shortened: as §5

slender amaranth (Am) [13] = test: as above; assay type: in vivo; parameters: scale not given here; conditions: dose 1.6 g ai/10a, 14th day after treatment
Procedure, shortened: as §5

China jute (Ab) [14] = test: as above; assay type: in vivo; parameters: scale not given here; conditions: dose 1.6 g ai/10a, 14th day after treatment
Procedure, shortened: as §5

wheat (Tr) = test: Test Example 9: crop plant selectivity by upland field foliage treatment (wheat), phytotoxicity; conditions: dose 1.6 g ai/10a, 14th day after treatment;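 note: grade of crop injury; 5 = at least 90%; 4 = 70 to 90%; 3 = 50 to 70%; 2 = 30 to 50%; 1 = 10 to 30%; 0 = under 10%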
Procedure, shortened: as §5

corn (Ze) = test: Test Example 11: crop plant selectivity by upland field foliage treatment (corn), phytotoxicity; conditions: upland field foliage treatment, dose 1.6 g ai/10a, 14th day after treatment
Method: as §2, §3

[15] = system: common lambsquarters (Ch); test: Test Example 3: herbicidal effects by upland field foliage treatment; assay type: in vivo; parameters: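 grade of growth control; 5 = at least 90%; 4 = 70 to 90%; 3 = 50 to 70%; 2 = 30 to 50%; 1 = 10 to 30%; 0 = under 10%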
Procedure, shortened: (§6)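 Scoring used a standard effect scale on the 14th day post-treatment, with plants held in a greenhouse throughout. Foliar application was made to weeds raised from seed in sand-filled pots for 2 weeks.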

Diaitaria ciliaris (Di) = test: as above; assay type: in vivo; parameters: scale not given here
Procedure, shortened: as §6

rice flatsedge (Ci) [16] = test: as above; assay type: in vivo; parameters: scale not given here
Procedure, shortened: as §6

barnyardgrass (Ec) [17] = test: as above; assay type: in vivo; parameters: scale not given here
Procedure, shortened: as §6

pale smartweed (Po) [18] = test: as above; assay type: in vivo; parameters: scale not given here
Procedure, shortened: as §6

slender amaranth (Am) [19] = test: as above; assay type: in vivo; parameters: scale not given here
Procedure, shortened: as §6

[20] = 100 g of the active ingredient per 10 ares, evaluated on the 14th day after treatment
[21] = 100 g active ingredient per 10 ares, evaluated 14th day after treatment

SMILES | Herbicidal effects Di (Digitaria ciliaris (Di)) | Herbicidal effects Ch [1] | Herbicidal effects Ci (rice flatsedge (Ci) [2]) | Herbicidal effects Ec (barnyardgrass (Ec) [3]) | Herbicidal effects Po (pale smartweed (Po) [4]) | Herbicidal effects Am (slender amaranth (Am) [5]) | Herbicidal effects Ch [6] | Herbicidal effects Po (pale smartweed (Po) [7]) | Herbicidal effects Am (slender amaranth (Am) [8]) | Herbicidal effects Ab (China jute (Ab) [9]) | Herbicidal effects Sc (bulrush (Sc)) | Herbicidal effects Ec (barnyardgrass (Ec) [10]) | Herbicidal effects Mo (monochoria (Mo)) | Herbicidal effects Ch [11] | Herbicidal effects Po (pale smartweed (Po) [12]) | Herbicidal effects Am (slender amaranth (Am) [13]) | Herbicidal effects Ab (China jute (Ab) [14]) | Phytotoxicity Tr (wheat (Tr)) | Phytotoxicity Ze (corn (Ze)) | Herbicidal effects Ch [15, 21] | further results
CC(C#N)Oc1cc(-c2ccc(C(F)(F)F)n(C)c2=O)c(F)cc1Cl (stereo not shown) [1-176] | 5 | 5 | 5 | 5 | 5 | 5 | 5 | 5 | 5 | 5 | 5 | 5 | 5 | 5 | 5 | 5 | 5 | 1 | 1 |  | Herbicidal effects Ch [15, 20]: 5; Herbicidal effects Di (Diaitaria ciliaris (Di); [20]): 5; Herbicidal effects Ci (rice flatsedge (Ci) [16]; [20]): 5; Herbicidal effects Ec (barnyardgrass (Ec) [17]; [20]): 5; Herbicidal effects Po (pale smartweed (Po) [18]; [20]): 5; Herbicidal effects Am (slender amaranth (Am) [19]; [20]): 5
C=CCN1C(=O)COc2ccc(-c3ccc(C(F)(F)F)n(C)c3=O)cc21 [2-31] | 5 | 5 | 5 | 5 | 5 | 5 | 5 | 5 | 5 | 5 | 5 | 5 | 5 | 5 | 5 | 5 | 5 | 2 | 2 | 5 | Herbicidal effects Di (Diaitaria ciliaris (Di); [21]): 5; Herbicidal effects Ci (rice flatsedge (Ci) [16]; [21]): 5; Herbicidal effects Ec (barnyardgrass (Ec) [17]; [21]): 5; Herbicidal effects Po (pale smartweed (Po) [18]; [21]): 5; Herbicidal effects Am (slender amaranth (Am) [19]; [21]): 5
COCOCc1cc(-c2ccc(C(F)(F)F)n(C)c2=O)c(F)cc1Cl [Compound 1-200] | 5 | 5 | 5 | 5 | 5 | 5 | 5 | 5 | 5 | 5 | 5 | 5 | 5 | 5 | 5 | 5 | 5 | 2 | 2 | 5 | Herbicidal effects Di (Diaitaria ciliaris (Di); [21]): 5; Herbicidal effects Ci (rice flatsedge (Ci) [16]; [21]): 5; Herbicidal effects Ec (barnyardgrass (Ec) [17]; [21]): 5; Herbicidal effects Po (pale smartweed (Po) [18]; [21]): 5; Herbicidal effects Am (slender amaranth (Am) [19]; [21]): 5
Cn1c(C(F)(F)F)ccc(-c2cc(COC3CCCC3)c(Cl)cc2F)c1=O [Compound 1-201] | 5 | 5 | 5 | 5 | 5 | 5 | 5 | 5 | 5 | 5 | 5 | 5 | 5 | 5 | 5 | 5 | 5 | 2 | 2 | 5 | Herbicidal effects Di (Diaitaria ciliaris (Di); [21]): 5; Herbicidal effects Ci (rice flatsedge (Ci) [16]; [21]): 5; Herbicidal effects Ec (barnyardgrass (Ec) [17]; [21]): 4; Herbicidal effects Po (pale smartweed (Po) [18]; [21]): 5; Herbicidal effects Am (slender amaranth (Am) [19]; [21]): 5
C=C(Cl)COc1cc(-c2ccc(C(F)(F)F)n(C)c2=O)c(F)cc1Cl [Compound 1-203] | 5 | 5 | 5 | 5 | 5 | 5 | 5 | 5 | 5 | 5 | 5 | 5 | 5 | 5 | 5 | 5 | 5 | 2 | 2 | 5 | Herbicidal effects Di (Diaitaria ciliaris (Di); [21]): 5; Herbicidal effects Ci (rice flatsedge (Ci) [16]; [21]): 5; Herbicidal effects Ec (barnyardgrass (Ec) [17]; [21]): 5; Herbicidal effects Po (pale smartweed (Po) [18]; [21]): 5; Herbicidal effects Am (slender amaranth (Am) [19]; [21]): 5
Cn1c(C(F)(F)F)ccc(-c2cc(OCCCF)c(Cl)cc2F)c1=O [Compound 1-204] | 5 | 5 | 5 | 5 | 5 | 5 | 5 | 5 | 5 | 5 | 5 | 5 | 5 | 5 | 5 | 5 | 5 | 2 | 2 | 5 | Herbicidal effects Di (Diaitaria ciliaris (Di); [21]): 5; Herbicidal effects Ci (rice flatsedge (Ci) [16]; [21]): 5; Herbicidal effects Ec (barnyardgrass (Ec) [17]; [21]): 5; Herbicidal effects Po (pale smartweed (Po) [18]; [21]): 5; Herbicidal effects Am (slender amaranth (Am) [19]; [21]): 5
COCN1C(=O)COc2cc(F)c(-c3ccc(C(F)(F)F)n(C)c3=O)cc21 [Compound 2-19] | 5 | 5 | 5 | 5 | 5 | 5 | 5 | 5 | 5 | 5 | 5 | 5 | 5 | 5 | 5 | 5 | 5 | 1 | 1 | 5 | Herbicidal effects Di (Diaitaria ciliaris (Di); [21]): 5; Herbicidal effects Ci (rice flatsedge (Ci) [16]; [21]): 5; Herbicidal effects Ec (barnyardgrass (Ec) [17]; [21]): 5; Herbicidal effects Po (pale smartweed (Po) [18]; [21]): 5; Herbicidal effects Am (slender amaranth (Am) [19]; [21]): 5
